Data taken from US20220071932A1, “Compositions and Methods Against Stress-Induced Affective Disorders and Their Associated Symptoms” (The Trustees of Columbia University in the City of New York, priority 2019, published 2022).

System: 129S6/SvEv mice
Test: Contextual fear conditioning (CFC), 3-shock; freezing
Type: in vivo
Settings: for p, Fisher's LSD Saline vs. drug, CFC Re-exposure Freezing Min 1 (%) / p, Fisher's LSD Saline vs. drug, CFC Re-exposure Freezing Min 2 (%) / p, Fisher's LSD Saline vs. drug, CFC Re-exposure Freezing Min 3 (%) / p, Fisher's LSD Saline vs. drug, CFC Re-exposure Freezing Min 4 (%) / p, Fisher's LSD Saline vs. drug, CFC Re-exposure Freezing Min 5 (%) / p, Fisher's LSD Saline vs. drug, CFC Re-exposure Freezing (%): drug 1 week before stress; for p, Fisher's PLSD Saline vs. drug, CFC Re-exposure Freezing Min 1 (%) / p, Fisher's PLSD Saline vs. drug, CFC Re-exposure Freezing Min 2 (%) / p, Fisher's PLSD Saline vs. drug, CFC Re-exposure Freezing Min 3 (%) / p, Fisher's PLSD Saline vs. drug, CFC Re-exposure Freezing Min 4 (%) / p, Fisher's PLSD Saline vs. drug, CFC Re-exposure Freezing Min 5 (%) / p, Fisher's PLSD Saline vs. drug, CFC Re-exposure Freezing (%): drug 5 minutes after stress, FIG. 2C
Description: A 3-shock CFC paradigm was administered as previously described (45, 46). CFC was conducted in chambers obtained from Med Associates (St. Albans, Vt.), with internal dimensions of approximately 20 cm wide×16 cm deep×20.5 cm high. The chambers had metal walls on each side, clear plastic front and back walls and ceilings, and stainless-steel bars on the floor. A house light (CM1820 bulb, 28v, 100 mA) mounted directly above the chamber provided illumination. Each chamber was located inside a larger, insulated, plastic cabinet that provided protection from outside light and noise. Each cabinet contained a ventilation fan that was operated during the sessions. A paper towel dabbed with lemon solution was placed underneath the chamber floor. Mice were held outside the experimental room in their home cages prior to testing and transported to the conditioning apparatus individually in standard mouse cages Chambers were cleaned with 70% EtOH between each set of mice. Mice were placed into the conditioning chamber and received shocks at 180 s, 240 s, and 300 s (2 s duration, 0.75 mA). Fifteen seconds after the last shock, mice were removed from the chamber. Overall, the training session lasted 317 s. […] All sessions were scored for freezing using FreezeFrame4.

[1] = 5 min prior to CFC, (R,S)-ketamine 30 mg/kg, FENM 20 mg/kg, vs saline
[2] = (R,S)-ketamine (30 mg/kg) vs. FENM (20 mg/kg), FIG. 8D
[3] = (R,S)-ketamine (30 mg/kg) vs. FENM (20 mg/kg), FIG. 8F

NC12CC3CC(C1)CC(CCF)(C3)C2 [FENM, 1-amino-3-fluoroethyl-adamantane]
p, Fisher's LSD Saline vs. drug, CFC Re-exposure Freezing Min 1 (%) (10 mg/kg, FIG. 1C): 0.4040
p, Fisher's LSD Saline vs. drug, CFC Re-exposure Freezing Min 2 (%) (10 mg/kg, FIG. 1C): 0.0961
p, Fisher's LSD Saline vs. drug, CFC Re-exposure Freezing Min 3 (%) (10 mg/kg, FIG. 1C): 0.5544
p, Fisher's LSD Saline vs. drug, CFC Re-exposure Freezing Min 4 (%) (10 mg/kg, FIG. 1C): 0.0419
p, Fisher's LSD Saline vs. drug, CFC Re-exposure Freezing Min 5 (%) (10 mg/kg, FIG. 1C): 0.3855
p, Fisher's LSD Saline vs. drug, CFC Re-exposure Freezing (%) (10 mg/kg, after ANOVA, FIG. 1D): 0.1313
p, Fisher's LSD Saline vs. drug, CFC Re-exposure Freezing (%) (10 mg/kg, after RMANOVA, FIG. 1C): 0.1313
p, Fisher's PLSD Saline vs. drug, CFC Re-exposure Freezing Min 1 (%) (10 mg/kg): 0.1019
p, Fisher's PLSD Saline vs. drug, CFC Re-exposure Freezing Min 2 (%) (10 mg/kg): 0.0359
p, Fisher's PLSD Saline vs. drug, CFC Re-exposure Freezing Min 3 (%) (10 mg/kg): 0.0300
p, Fisher's PLSD Saline vs. drug, CFC Re-exposure Freezing Min 4 (%) (10 mg/kg): 0.1916
p, Fisher's PLSD Saline vs. drug, CFC Re-exposure Freezing Min 5 (%) (10 mg/kg): 0.6909
p, Fisher's PLSD Saline vs. drug, CFC Re-exposure Freezing (%) (10 mg/kg, after RMANOVA): 0.0570
p, Fisher's LSD Saline vs. drug, CFC Re-exposure Freezing Min 1 (%) (20 mg/kg, FIG. 1C): 0.2929
p, Fisher's LSD Saline vs. drug, CFC Re-exposure Freezing Min 2 (%) (20 mg/kg, FIG. 1C): 0.0225
p, Fisher's LSD Saline vs. drug, CFC Re-exposure Freezing Min 3 (%) (20 mg/kg, FIG. 1C): 0.0834
p, Fisher's LSD Saline vs. drug, CFC Re-exposure Freezing Min 4 (%) (20 mg/kg, FIG. 1C): 0.0743
p, Fisher's LSD Saline vs. drug, CFC Re-exposure Freezing Min 5 (%) (20 mg/kg, FIG. 1C): 0.0027
p, Fisher's LSD Saline vs. drug, CFC Re-exposure Freezing (%) (20 mg/kg, after ANOVA, FIG. 1D): 0.015
p, Fisher's LSD Saline vs. drug, CFC Re-exposure Freezing (%) (20 mg/kg, after RMANOVA, FIG. 1C): 0.0150
p, Fisher's LSD Saline vs. drug, CFC Re-exposure Freezing Min 1 (%) (30 mg/kg, FIG. 1C): 0.0328
p, Fisher's LSD Saline vs. drug, CFC Re-exposure Freezing Min 2 (%) (30 mg/kg, FIG. 1C): 0.0080
p, Fisher's LSD Saline vs. drug, CFC Re-exposure Freezing Min 3 (%) (30 mg/kg, FIG. 1C): 0.0038
p, Fisher's LSD Saline vs. drug, CFC Re-exposure Freezing Min 4 (%) (30 mg/kg, FIG. 1C): 0.0005
p, Fisher's LSD Saline vs. drug, CFC Re-exposure Freezing Min 5 (%) (30 mg/kg, FIG. 1C): 0.0807
p, Fisher's LSD Saline vs. drug, CFC Re-exposure Freezing (%) (30 mg/kg, after ANOVA, FIG. 1D): 0.0018
p, Fisher's LSD Saline vs. drug, CFC Re-exposure Freezing (%) (30 mg/kg, after RMANOVA, FIG. 1C): 0.0018
p, Fisher's PLSD Saline vs. drug, CFC Re-exposure Freezing Min 1 (%) (30 mg/kg): 0.8647
p, Fisher's PLSD Saline vs. drug, CFC Re-exposure Freezing Min 2 (%) (30 mg/kg): 0.4119
p, Fisher's PLSD Saline vs. drug, CFC Re-exposure Freezing Min 3 (%) (30 mg/kg): 0.3540
p, Fisher's PLSD Saline vs. drug, CFC Re-exposure Freezing Min 4 (%) (30 mg/kg): 0.0503
p, Fisher's PLSD Saline vs. drug, CFC Re-exposure Freezing Min 5 (%) (30 mg/kg): 0.3078
p, Fisher's PLSD Saline vs. drug, CFC Re-exposure Freezing (%) (30 mg/kg, after RMANOVA): 0.2420
fear expression during CFC re-exposure (1 week prior to CFC, (R,S)-ketamine 30 mg/kg, FENM 20 and 30 mg/kg, vs saline): decreased fear expression
fear expression during re-exposure 2 (5 min after context re-exposure 1 (24 h before re-exposure 2), (R,S)-ketamine 30 mg/kg, FENM 20 mg/kg, vs saline): significantly decreased fear expression
fear expression during CFC re-exposure 1 [1]: but not FENM significantly decreased
fear expression during CFC re-exposure 2 [1]: significantly increased fear expression
freezing during CFC training [1]: but not FENM, increased freezing
CFC Training, Average Freezing, p (Fisher's LSD) ((R,S)-ketamine (30 mg/kg) vs. FENM (20 mg/kg), FIG. 8C): 0.0029
CFC Re-exposure 1, Freezing Min 1 (%), p (Fisher's LSD) [2]: <0.0001
CFC Re-exposure 1, Freezing Min 2 (%), p (Fisher's LSD) [2]: <0.0001
CFC Re-exposure 1, Freezing Min 3 (%), p (Fisher's LSD) [2]: <0.0001
CFC Re-exposure 1, Freezing Min 4 (%), p (Fisher's LSD) [2]: <0.0001
CFC Re-exposure 1, Freezing Min 5 (%), p (Fisher's LSD) [2]: <0.0001
CFC Re-exposure 2, Freezing Min 1 (%), p (Fisher's LSD) [3]: 0.1684
CFC Re-exposure 2, Freezing Min 2 (%), p (Fisher's LSD) [3]: <0.0001
CFC Re-exposure 2, Freezing Min 3 (%), p (Fisher's LSD) [3]: <0.0001
CFC Re-exposure 2, Freezing Min 4 (%), p (Fisher's LSD) [3]: <0.0001
CFC Re-exposure 2, Freezing Min 5 (%), p (Fisher's LSD) [3]: <0.0001
CFC Re-exposure 1, Freezing (%), p (Fisher's LSD) ((R,S)-ketamine (30 mg/kg) vs. FENM (20 mg/kg), after ANOVA, FIG. 8E): <0.0001
CFC Re-exposure 2, Freezing (%), p (Fisher's LSD) ((R,S)-ketamine (30 mg/kg) vs. FENM (20 mg/kg), after ANOVA, FIG. 8G): <0.0001
CFC Re-exposure 1, Freezing (%), p (Fisher's LSD) ((R,S)-ketamine (30 mg/kg) vs. FENM (20 mg/kg), after RMANOVA, FIG. 8D): <0.0001
